A short description of data set [1]: UV spectroscopy after air oxidation of the solution. The data set is classed as physicochemical. The note with it: ninety days of air oxidation of the solution; UV spectra. An excerpt: There is no UV peak. FIGS. 2B and 2C show ultraviolet spectra of Pd-Lipoic Acid Complex (Poly-RC) with a concentration of 2×10^-6 M in FIG. 2B and 10^-6 M in FIG. 2C. FIGS. 2D and 2E show ultraviolet absorbance spectra of oxidized Poly RC after ninety days of air oxidation of the solution (experiment conducted Jun 11, 1993). In FIGS. 2D and 2E, the concentration is 0.00012 M. In FIG. 2D, the spectrum is ended at 400.0 nm and 0.542 A, and a reference peak is at 289.0 nm and 0.75 A. In FIG. 2E, the spectrum is ended at 550.0 nm and 0.036 A, and a reference peak is at 396.0 nm and 0.553 A. FIG. 2F illustrates the absorbance spectra of Pd-lipoic acid complexes at varying ratios of palladium to lipoic acid at a Pd concentration of 5×10^-5 M. The ratios are 1 Pd: 1 lipoic=n 1, 1 Pd: 2 lipoic=n 2, and 1 Pd: 3 lipoic=n 3. […] The reference peak of B12 is at 361.2 nm and 0.042 A and the reference peak of B12 Ac is at 358.6 nm and 0.044 A.
After ninety days of air oxidation of the Poly-RC solution, an ultraviolet spectra was again obtained on the Shimadzu UV spectrophotometer. In both instances, a 1.2×10^-4 μ solution was employed. […] FIG. 2E illustrates the visible range of the Poly RC, in which range an inflection is estimated as occurring at 396 nm. These spectra showing a shift from the fresh Poly RC solution are consistent with the view that Poly RC is a redox complex.

In another data set the test system is tumors. In words: Compassionate IND studies in tumor patients. The data set is classed as in vivo, human. The following applies: for liquefaction of carcinomas, adenocarcinomas, melanomas and metastases / shrinkage of carcinomas, adenocarcinomas, melanomas and metastases: patients. The source says: (§1) Data reporting therapeutic effects are best presented by independent institutional protocols. Compassionate Investigational New Drug studies in humans involving administration of the novel polynucleotide reductases were begun in November of 1992 and are presently ongoing.
However, the precise route of administration, dosage and frequency of administration is individualized for each patient and can vary over a wide range depending on the particular disease state being treated, the condition of the patient and the like.

The test system of a further data set is DNA (CT). In words: Cyclic voltammetry of charge interactions with DNA. The class given is biochemical. On the procedure: 16, 1993. […] 18, 1993. […] 30, 1993.
The structures of these complexes, as shown in the Examples, were also studied by Fourier transform-infrared spectroscopy (FTIR).
The working electrode used a smile mercury drop, the reference electrode was Ag/AgCl wire in KCl solution housed behind a porous Vycor frit and the counter electrode was Ag/AgCl wire. A reversing scan was performed from either 0 or -0.3 Volt to -1.0 Volts at 20 μA or 100 μA sensitivity and a scan rate of 100 mv/sec. Before the reductase sample was run, 9.0 ml of acetate buffer background electrolyte at pH 5.0 was purged for 8 minutes by vigorous bubbling of nitrogen. The addition of each sample was followed by two minutes of nitrogen purging.
In this example, 1.0 ml of a 5 mg/ml DNA solution was added to 250 μl of a 0.12μ Poly-RC solution. […] This scan was run from 0 to -1.0 volts at 20 μA sensitivity.
The amount of energy transferred is calculated from the shift in the voltage and current coordinates in terms of the Nernst relation. This interpretation of shifts in electro-potential curves follows the interpretations of electrochemistry literature, e.g., Maloy, "Factors Affecting the Shape of Current Potential Curves," I. Chem. Ed., 60(4):285-289 (April 1983); Rieger, Electrochemistry, Prentice Hall (1987); and Riley et al., Principles of Electroanalytical Methods, John Wiley (1987).
FIG. 6A was run from 0 to -1.0 volts at 100 μA sensitivity, while Rigure 6B was run from -0.3 to -1.0 volts at 20 μA sensitivity.
Both scans were run from -0.3 to -1.0 volts at 20 μA sensitivity. […] Biochem, 51(1 and 2):221 (August 1993).

Data set [2] concerns Brewer's yeast (Saccharomyces cerevisae) / Baker's yeast. Description: Induction of new yeast form (cell morphology, phase microscopy). The class given is cell-based. The note with it: Poly-R2 10^-7 M, 30 minutes at 28° C. On the procedure:
Brewer's yeast (Saccharomyces cerevisae) was cultured in 2.0% malt extract and 2.0% sucrose.
The yeast was incubated for 30 minutes at 28° C. and examined under phase microscopy.

For data set [3], the system named is metastatic lesions to the liver. The following applies: patients with metastatic lesions to the liver.
Source text: as §1

Data on two substances can be found in US5463093A, “Palladium complexes and methods for using same in the treatment of tumors or Psoriasis” (priority 1993, dated 1995).

Entries after “also recorded” stand apart in the source; their conditions may differ.

As to palladium-lipoic acid complex [Poly-RC], the “redox state after air oxidation” value in data set [1] is reported as “in the oxidative state”. In the data set on tumors, the “liquefaction of carcinomas, adenocarcinomas, melanomas and metastases” value was “developing non-hemorrhagic central liquefaction”; the “shrinkage of carcinomas, adenocarcinomas, melanomas and metastases” value is listed as “shrinking”. The “charge interaction of Poly-RC with DNA (voltammetric wave)” value with DNA (CT) (250 μl of 0.12 M Poly-RC + 1.0 ml DNA 5 mg/ml, 0 to -1.0 volts, 20 μA) was “double peaked catalytic wave of Poly-RC was altered on the addition of DNA; also recorded: current had dropped and voltage had moved in the oxidative direction; also recorded: DNA oxidizes Poly-RC”.
In the case of “thiamine salt of a palladium-lipoic acid complex [Poly-R2]”, in data set [2] (FIG. 8B), the “loss of lipid droplets during giantization of yeast cells” value was “lipid droplets are lost from the cell; also recorded: lipid drops are lost from the cell”. Also, in data set [2] (phase microscopy), the “altered cell morphology of yeast cells” value was “Large fiat cells were one kind of new variety; also recorded: altered cell morphology of yeast cells”. In the data set with tumors, the “liquefaction of carcinomas, adenocarcinomas, melanomas and metastases” value is given as “developing non-hemorrhagic central liquefaction”; the “shrinkage of carcinomas, adenocarcinomas, melanomas and metastases” value is recorded as “shrinking”. In addition, the “reduction in tumor size” value in the data set with tumors (terminally ill patients, objective criteria) is “reduction in tumor size by objective criteria”. The “relief of symptoms caused by various cancers” value with tumors (terminally ill patients, subjective) is given as “subjective relief of symptoms”. Also, in data set [3], the “enlargement of the liver” value is given as “no longer palpable” and the serum albumen levels entry is recorded as “return to normal”. In the data set with DNA (CT) (Poly-R2 compared with Poly-RC), the “magnitude of voltammetric shifts with DNA” value is “greater magnitude”. For the same substance, in the data set with DNA (CT) (cyclic voltammetry), the “reduction of DNA” value is “can reduce both DNA and RNA”.
